# Data as given in patent US9249185B2, “Peptides for promoting angiogenesis and an use thereof” (INDUSTRY-ACADEMIC COOPERATION FOUNDATION, SOOKMYUNG WOMEN'S …, priority 2010, dated 2016).
# What was measured:
# [1] = tested on: human umbilical vein endothelial cells (HUVECs); test: Proliferation of HUVECs (CyQUANT kit); assay type: cell-based; conditions: 48 hours with peptide, negative control (untreated) = 100
# Procedure: In order to investigate the effect of the 7 peptides prepared in Example 1 on blood vessel formation, human umbilical vein endothelial cells (HUVECs) were treated with the peptide of the present invention and their proliferation was observed.
# HUVECs were cultured in endothelial cell basal medium-2 (EBM-2, Clonetics Co., San Diego, USA) containing 2% fetal bovine serum (FBS). The cultured HUVECs were transferred to a 96-well plate, with 1000 cells per each well. After culturing for 24 hours followed by addition of the 7 peptides of the peptide of the present invention to each well, they were further cultured for 48 hours. The cells treated with VEGF instead of the peptide of the present invention and those treated with nothing were cultured under the same condition, as positive control group and negative control group, respectively. Upon completion of the culturing, the degree of cell proliferation was measured using the CyQUANT kit (Invitrogen, USA).
# [2] = tested on: HUVECs; test: Migration of HUVECs through polycarbonate filter chamber; assay type: cell-based, human; conditions: 37° C. for 10 hours, negative control (untreated) = 100
# Procedure: In order to investigate the effect of the 7 peptides prepared in Example 1 on blood vessel formation, migration of HUVECs was measured.
# The bottom portion of a chamber of a 24-well plate (Corning Costar, USA) having a polycarbonate filter with pores therebelow was coated with 0.5 mg/mL collagen type 1 ([…]). After adding EBM-2 containing the 7 peptides of the peptide of the present invention to the bottom portion of the chamber, HUVECs were inoculated at the upper portion of the chamber, with 1×10^5 cells per well. After incubation at 37° C. for 10 hours, the cells that had passed through the polycarbonate filter were fixed with methanol, stained with hematoxylin, and counted under a microscope.
Substance,Cell proliferation (%) [1] [%],Cell migration (%) [2] [%]
KNAGHS (Pep_4 Artificial Peptide for Promotion of Angiogenesis),119.6,135.5
AGESQK (Pep_11 Artificial Peptide for Promotion of Angiogenesis),146.5,202.2
KNAGDS (Pep_3 Artificial Peptide for Promotion of Angiogenesis),115.7,125.8
RQAGDS (Pep_5 Artificial Peptide for Promotion of Angiogenesis),207.5,165.4
Vascular endothelial growth factor [VEGF],166.0,146.3
RQAGHS (Pep_6 Artificial Peptide for Promotion of Angiogenesis),138.0,138.6
PKAGES (Pep_2 Artificial Peptide for Promotion of Angiogenesis),104.4,159.5
AGES (Pep_1 Artificial Peptide for Promotion of Angiogenesis),109.6,118.0
